According to patent publication US20050065114A1, “Therapeutical treatment with oligo-beta- (1,3) -glucans, drugs used in said treatment” (priority 2003, published 2005):
“And” between values parts separate entries of the source, which are not always exact repeats. Identical values can stand only once.

Experiments:
Format in all cases: in vivo, Balb/c mice
[1] = tested on: TNF-alpha; assay: Cytokine level in peripheral blood: TNF-alpha in serum by OptEIA Mouse TNF-alpha ELISA; conditions: for TNF-alpha level (Table 6, same experiments as Table 5): 250 μg/mouse, unit not given in Table 6 (Table 5: pg/ml); for Relative activity on TNF-alpha level (in words): comparison between substances, Table 6, 24 and 48 h
Procedure: Balb/c mice were intraperitoneally injected with 50 μg of Laminaritetraose, Laminaripentaose, Laminarin or Lentinan (purchased from NIH, Bethesda, Md., USA) in PBS.
After various time intervals (30, 60 and 90 minutes, respectively), after the injection of Laminaritetraose, Laminaripentaose, Laminarin, Lentinan only, the mice were killed and blood was collected in Eppendorf tubes.
Subsequently, the serum of the collected blood was separated, collected and stored at −80° C. for no more than 1 week.
The level of TNF-alpha in the serum samples was evaluated using a commercial kit marketed as OptEIA Mouse TNF-alpha (Mono/Mono) Set by the Company Pharmingen, San Diego, Calif., USA); the manufacturer's instructions were followed.
In connection with the experiments carried out by Applicants, Balb/c mice were intraperitoneally injected with various doses (50, 100, and 250 μg) of Soluble laminarin and Lentinan (from NIH, Bethesda, Md., USA) in PBS.
Control mice were treated with PBS only. […]
Subsequently, the serum was prepared, collected and stored at −80° C. for no more than 1 week.
The level of TNF-alpha in serum samples was evaluated using a commercial kit marketed as OptEIA Mouse TNF-alpha (Mono/Mono) Set by the Company Pharmingen, San Diego, Calif., USA); the manufacturer's instructions were followed.
In that respect, The wells of 96-well plates were coated with 0.1 ml/well of capture antibody (provided in the above kit) diluted in coating buffer (also provided in the above kit); the expression “capture antibody” designates first antibody used for coating of wells; this antibody captures the tested cytokines from the solution; in this assay it was anti-mouse-TNF-alpha monoclonal antibody.
The plates were sealed and incubated overnight at 4° C.
Individual wells were emptied by aspiration and washed 3 times with over 300 el/well of wash buffer (also provided in the kit).
Reaction was blocked with 200 el/well of assay dilutant diluent (also provided in the kit) and by incubation for 60 minutes at room temperature.
Again, individual wells were emptied by aspiration and washed 3 times with over 300 el/well of the same wash buffer.
Standards (also provided in the kit) and samples of serum were diluted in assay diluent (also provided in the kit) and pipetted (100 μl/well) in appropriate wells; as far as the dissolution rate is concerned standards (part of the kit) were diluted according to the instructions into following concentrations: 1000 pg/ml, 500 pg/ml, 250, 125, 62.5, 31.3, and 15.6 pg/ml.
The plates were sealed and incubated for 60 minutes at room temperature. Individual wells were aspirated and washed 3 times with over 300 μl/well of the same wash buffer. A quantity of 100 μl/well of a working detector (antibody-avidin-HRP conjugate also provided in the kit) was added into each well.
The plates were sealed with plastic foils and incubated for 60 minutes at room temperature. Individual wells were emptied by aspiration and washed 3 times with over 300 μl/well of same wash buffer.
A quantity of 100 μl/well of substrate solution (also provided in the kit) was added to each well and the plates were incubated for 30 minutes in the dark at room temperature; “substrate solution” is formed by mixing a substrate reagent A containing hydrogen peroxide and Substrate reagent B containing 3,3′,5,5′-tetramethylbenzidine in organic solvent; when mixed together, the reagent reacts with peroxidase-labeled conjugates to develop a blue color.
A quantity of 50 μl/well of stop solution provided in the kit and adapted to stop the reaction was added to each well and the optical density was determined using a STL ELISA reader (marketed by Tecan U.S., Research Triangle Park, N.C.) at 450 nm with a correction at 570 nm.
The concentration of TNF-alpha, in pg/ml, in the blood of the mice treated as hereabove disclosed has been determined at the following moments: 30, 60 and 90 minutes after the injection of Laminaritetraose, Laminaripentaose, Lentinan and control. […]

[2] = tested on: cells from peripheral blood (monocytes, granulocytes); assay: Phagocytosis of HEMA particles by cells from peripheral blood after intraperitoneal injection; conditions: for % of phagocytosing granulocytes / % of phagocytosing monocytes: peripheral blood 24 hrs after i.p. injection
Procedure: A group of Balb/c mice (Jackson laboratory, Bar Harbor, ME, USA) has been injected intraperitoneally with either PBS (Control; Sigma, St. Louis, Mo., USA), Laminaritetraose or Laminaripentaose. 24 hrs later, mice were sacrified, peripheral blood from the orbital plexus was collected into heparine (5 IU/ml) (Sigma).
After counting, a test of phagocytosis of HEMA particles (synthetic microspheres prepared from 2-hydroxyethylmethacrylate copolymer) was performed as described in: Rembaum et al., 1976, Vetvicka et al. 1982, Bilej et al., 1989.
0.1 ml of heparinized fresh blood was added to 0.05 ml of diluted HEMA particles (5×10^8/ml) and incubated for 60 minutes at 37° C. with occasional gentle agitation.
After the end of incubation, the cell suspension was smeared over microscope slides. Smears were evaluated under the optical microscope after Accustain (modified Wright stain, Sigma) staining.
Cells with at least three engulfed particles were considered to be positive.

[3] = tested on: peritoneal macrophages; assay: Phagocytosis of HEMA particles by cells from peritoneal cavity after intraperitoneal injection; conditions: for % of phagocytosing macrophages: peritoneal cells 24 hrs after i.p. injection
Procedure: A group of Balb/c mice (Jackson laboratory, Bar Harbor, Me., USA) has been injected intraperitoneally with either PBS (control), Laminaritetraose or Laminaripentaose. 24 hrs later, mice were sacrificed, peritoneal cells were collected into Hanks medium (Sigma).
After counting the cells in hemocytometer, the peritoneal cells were diluted to lxlO7 cells in RPMI 1640 medium (Sigma) with 5% fetal calf serum (Hyclone, Logan, Utah, USA).
2×10^6 cells in 0.2 ml of RPMI 1640 medium supplemented with 5% fetal calf serum were mixed with the same volume of HEMA particles (5×10^8/ml).
The suspension was incubated for 60 minutes at 37° C. with occasional agitation. Incubation was terminated by centrifugation (150 g for 5 minutes) and the pellet was resuspended.
Macrophages with ingested particles were scored under the optical microscope in smears after Accustain (modified Wright stain, Sigma) staining.
Cells with six or more engulfed particles were considered to be positive.

[4] = tested on: peripheral blood cells (monocytes, lymphocytes, granulocytes); assay: Differential count in blood; conditions: for % of granulocytes / % of lymphocytes / % of monocytes: peripheral blood 24 hrs after i.p. injection
Procedure: (§1) Using the same experimental groups as described above in Example 3, two extra microscopic slides from each experimental sample were prepared. After Accustain (modified Wright stain, Sigma) staining, the slides were evaluated using the optical microscope for presence of individual types of cells, i.e. monocytes, lymphocytes and granulocytes.

[5] = tested on: peritoneal cells (macrophages, lymphocytes, mast cells); assay: Differential count in peritoneal cells; conditions: for % of lymphocytes / % of macrophages / % of mast cells: peritoneal cells 24 hrs after i.p. injection
Procedure: as §1, with “4,” for “3,”, “macrophages,” for “monocytes,”, “mast cells.” for “granulocytes.”

[6] = individual values, cells with at least three engulfed HEMA particles positive
[7] = mean, at least three engulfed HEMA particles

Lentinan [reference compound]
Concentration of TNF alpha in blood of treated mice ([1]; 50 μg/mouse i.p., 30 min): 20 pg/mL
Concentration of TNF alpha in blood of treated mice ([1]; 50 μg/mouse i.p., 60 min): 15.7 pg/mL
Concentration of TNF alpha in blood of treated mice ([1]; 50 μg/mouse i.p., 90 min): 32.0 pg/mL
Concentration of TNF alpha in blood of treated mice ([1]; 100 μg/mouse i.p., 30 min): 28 pg/mL
Concentration of TNF alpha in blood of treated mice ([1]; 100 μg/mouse i.p., 60 min): 30.7 pg/mL
Concentration of TNF alpha in blood of treated mice ([1]; 100 μg/mouse i.p., 90 min): 20.3 pg/mL
Concentration of TNF alpha in blood of treated mice ([1]; 250 μg/mouse i.p., 30 min): 86.3 pg/mL
Concentration of TNF alpha in blood of treated mice ([1]; 250 μg/mouse i.p., 60 min): 68.7 pg/mL
Concentration of TNF alpha in blood of treated mice ([1]; 250 μg/mouse i.p., 90 min): 48.6 pg/mL

OC[C@H]1O[C@@H](O[C@@H]2[C@@H](O)[C@H](O[C@@H]3[C@@H](O)[C@H](O[C@@H]4[C@@H](O)[C@H](O[C@@H]5[C@@H](O)[C@H](O)O[C@H](CO)[C@H]5O)O[C@H](CO)[C@H]4O)O[C@H](CO)[C@H]3O)O[C@H](CO)[C@H]2O)[C@H](O)[C@@H](O)[C@@H]1O [Laminaripentaose, β-D-glucopyranosyl-(1→3)-β-D-glucopyranosyl-(1→3)-β-D-glucopyranosyl-(1→3)-β-D-glucopyranosyl-(1→3)-β-D-glucopyranose]
% of phagocytosing granulocytes [2, 6]: 40.8% and 42.5% and 46.4%
% of phagocytosing monocytes [2, 6]: 41.6% and 43.1% and 49.6%
% of phagocytosing granulocytes [2, 7]: 43.2%
% of phagocytosing monocytes [2, 7]: 44.8%
Effect on phagocytosis in monocytes and granulocytes (in words) ([2]; peripheral blood, versus PBS control): strongly stimulate phagocytosis
% of phagocytosing macrophages ([3]; individual values, cells with six or more engulfed HEMA particles positive): 54.9% and 57.3% and 62.7%
% of phagocytosing macrophages ([3]; mean, six or more engulfed HEMA particles): 58.3%
Effect on phagocytosis of peritoneal macrophages (in words) ([3]; peritoneal cells, versus PBS control): strongly stimulate phagocytosis
% of granulocytes ([4]; individual values): 33.8% and 35.9% and 36.9%
% of lymphocytes ([4]; individual values): 57.1% and 54.1% and 53.3%
% of monocytes ([4]; individual values): 9.1% and 1.0% and 9.8%
% of granulocytes ([4]; mean): 35.5%
% of lymphocytes ([4]; mean): 54.8%
% of monocytes ([4]; mean): 9.4%
Effect on number of granulocytes in the peripheral blood (in words) ([4]; versus PBS control): increase the number of granulocytes
% of lymphocytes ([5]; individual values): 48.1% and 48.0% and 34.7%
% of macrophages ([5]; individual values): 50.4% and 48.1% and 59.8%
% of mast cells ([5]; individual values): 1.5% and 3.9% and 5.5%
% of lymphocytes ([5]; mean): 43.4%
% of macrophages ([5]; mean): 52.8%
% of mast cells ([5]; mean): 3.6%
Effect on migration of macrophage into the peritoneal cavity (in words) ([5]; versus PBS control): stimulate the migration of macrophage
Concentration of TNF alpha in blood of treated mice ([1]; 50 μg/mouse i.p., 30 min): 34.3 pg/mL
Concentration of TNF alpha in blood of treated mice ([1]; 50 μg/mouse i.p., 60 min): 37.0 pg/mL
Concentration of TNF alpha in blood of treated mice ([1]; 50 μg/mouse i.p., 90 min): 71.3 pg/mL
Concentration of TNF alpha in blood of treated mice ([1]; 100 μg/mouse i.p., 30 min): 53.0 pg/mL
Concentration of TNF alpha in blood of treated mice ([1]; 100 μg/mouse i.p., 60 min): 46.5 pg/mL
Concentration of TNF alpha in blood of treated mice ([1]; 100 μg/mouse i.p., 90 min): 93.2 pg/mL
Concentration of TNF alpha in blood of treated mice ([1]; 250 μg/mouse i.p., 30 min): 42.1 pg/mL
Concentration of TNF alpha in blood of treated mice ([1]; 250 μg/mouse i.p., 60 min): 36.4 pg/mL
Concentration of TNF alpha in blood of treated mice ([1]; 250 μg/mouse i.p., 90 min): 24.4 pg/mL
TNF-alpha level (Table 6, same experiments as Table 5) ([1]; 24 hours): 79.6 pg/mL
TNF-alpha level (Table 6, same experiments as Table 5) ([1]; 48 hours): 38.7 pg/mL
Relative activity on TNF-alpha level (in words) [1]: more active than Laminaritetraose
Relative activity on TNF-alpha level (in words) ([1]; listed as laminaripentaose): more active than yest derived glucan (Lentinan)
Increase of TNF-alpha secretion compared with Lentinan (in words) ([1]; low doses, indirect activation of macrophages and cytotoxic T lymphocytes): significantly higher
